These results are taken from patent publication US20230287003A1, “BCL6 INHIBITORS” (Cancer Research Technology Limited, priority 2018, published 2023).

The target of this test is human BCL6 BTB domain (Trx-6×His-BCL6) / BCOR-AF633 peptide (Homo sapiens (Human), UniProt P41182). Nature of the test: HTRF assay. The class given is binding.
The mark [1] stands for this setting: 1 nM Trx-6×His-BCL6, 300 nM BCOR-AF633 peptide, 2 hours incubation.
The mark [2] stands for this setting: read-out: IC50 in the HTRF assay.

Read-outs that look alike come from different tables or passages of the source.

Method: The % inhibition at each concentration was calculated by normalising FRET ratio to the appropriate high (DMSO with all reagents) and low (DMSO without BCL6) controls.

The compound `CC1Nc2c(c(=O)n(C)c3ccc(Nc4nc(N5C[C@H](C)C[C@H](C)C5)ncc4Cl)cc23)C(=O)OC1C` (mixture of isomers) [Example 8q, rac-(2S,3R)-10-((5-chloro-2-((3S,5R)-3,5-dimethylpiperidin-1-yl)pyrimidin-4-yl)amino)-2,3,7-trimethyl-2,3-dihydro-[1,4]oxazepino[6,5-c]quinoline-5,6(1H,7H)-dione or rac-(2S,3S)-10-((5-chloro-2-((3S,5R)-3,5-dimethylpiperidin-1-yl)pyrimidin-4-yl)amino)-2,3,7-trimethyl-2,3-dihydro-[1,4]oxazepino[6,5-c]quinoline-5,6(1H,7H)-dione] gave a 50% inhibitory concentration (IC50) (HTRF avg pIC50 (1 nM), 1 nM Trx-6×His-BCL6, 300 nM BCOR-AF633 peptide, 2 hours incubation) of 479 nM.

As to `C[C@@H]1C[C@H](C)CN(c2ncc(Cl)c(Nc3ccc4c(c3)c3c(c(=O)n4C)C(=O)OC[C@H](C4CC4)N3)n2)C1` [Example 8l, (S)-10-((5-chloro-2-((3R,5S)-3,5-dimethylpiperidin-1-yl)pyrimidin-4-yl)amino)-2-cyclopropyl-7-methyl-2,3-dihydro-[1,4]oxazepino[6,5-c]quinoline-5,6(1H,7H)-dione], the “HTRF avg pIC50 (1 nM)” value under setting [1] was determined as 6.36.

With `C[C@H]1COC(=O)c2c(c3cc(Nc4nc(N5CCC6(CCCN(C)C6=O)CC5)ncc4Cl)ccc3n(C)c2=O)N1` [Example 8e, (S)-10-((5-chloro-2-(2-methyl-1-oxo-2,9-diazaspiro[5.5]undecan-9-yl)pyrimidin-4-yl)amino)-2,7-dimethyl-2,3-dihydro-[1,4]oxazepino[6,5-c]quinoline-5,6(1H,7H)-dione], the “HTRF avg pIC50 (1 nM)” value under setting [1] amounted to 6.69.

As to `Cn1c(=O)c2c(c3cc(Nc4nc(N5C6CCC5COC6)ncc4F)ccc31)N[C@@H](C1CC1)C(F)(F)CO2` [Example 13j, (S)-10-((2-(3-oxa-8-azabicyclo[3.2.1]octan-8-yl)-5-fluoropyrimidin-4-yl)amino)-2-cyclopropyl-3,3-difluoro-7-methyl-1,2,3,4-tetrahydro-[1,4]oxazepino[2,3-c]quinolin-6(7H)-one], the “HTRF avg pIC50 (1 nM)” value under setting [1] turned out to be 8.60.

Consider `C[C@@H]1CN(c2ncc(Cl)c(Nc3ccc4c(c3)c3c(c(=O)n4C)OCC[C@H](C4CC4)N3)n2)C[C@H](C)[C@H]1F` [Example 12e, (R)-10-((5-chloro-2-((3S,4R,5R)-4-fluoro-3,5-dimethylpiperidin-1-yl)pyrimidin-4-yl)amino)-2-cyclopropyl-7-methyl-1,2,3,4-tetrahydro-[1,4]oxazepino[2,3-c]quinolin-6(7H)-one], for which, under setting [1], the “HTRF avg pIC50 (1 nM)” value came out at 6.93.

On to “(S)-10-((5-chloro-2-((R)-4,4-difluoro-3- (hydroxymethyl)piperidin-1-yl)pyrimidin-4-yl)amino)-2-cyclopropyl- 3,3-difluoro-7-methyl-1,2,3,4-tetrahydro-[1,4]oxazepino[2,3-c]quinolin- 6(7H)-one or (S)-10-((5-chloro-2-((S)-4,4-difluoro-3- (hydroxymethyl)piperidin-1-yl)pyrimidin-4-yl)amino)-2-cyclopropyl- 3,3-difluoro-7-methyl-1,2,3,4-tetrahydro-[1,4]oxazepino[2,3-c]quinolin- 6(7H)-one [Example 12p]”, for which the “HTRF avg pIC50 (1 nM)” value under setting [1] came to 8.34.

“(S)-10-((5-chloro-2-((3S,5R)-3-hydroxy-5- methylpiperidin-1-yl)pyrimidin-4-yl)amino)-2,7-dimethyl-1,2,3,4- tetrahydro-[1,4]oxazepino[2,3-c]quinolin-6(7H)-one or (S)-10-((5- chloro-2-((3R,5S)-3-hydroxy-5-methylpiperidin-1-yl)pyrimidin-4- yl)amino)-2,7-dimethyl-1,2,3,4-tetrahydro- [1,4]oxazepino[2,3-c]quinolin-6(7H)-one [Example 12l]”: the “HTRF avg pIC50 (1 nM)” value under setting [1] is 6.99.

As to `CC1CSc2c(c3cc(Nc4ccnc(Cl)c4C#N)ccc3n(C)c2=O)N1` (stereo not drawn) [Example 1t, 2-chloro-4-((2,6-dimethyl-5-oxo-2,3,5,6-tetrahydro-1H-[1,4]thiazino[2,3-c]quinolin-9-yl)amino)nicotinonitrile], the “HTRF avg pIC50 (1 nM)” value under setting [1] was 6.00.

Turning to `CC1COc2c(c3cc(Nc4ccnc(Cl)c4C#N)ccc3n(C)c2=O)N1` (stereo not drawn) [Example 1k, 2-chloro-4-((2,6-dimethyl-5-oxo-2,3,5,6-tetrahydro-1H-[1,4]oxazino[2,3-c]quinolin-9-yl)amino)nicotinonitrile], under setting [1], the “HTRF avg pIC50 (1 nM)” value worked out at 5.91.

On to `CC1CCc2c(c3cc(Nc4ccnc(Cl)c4C#N)ccc3n(C)c2=O)N1` (stereo not drawn) [Example 10a, 2-chloro-4-((2,6-dimethyl-5-oxo-1,2,3,4,5,6-hexahydrobenzo[h][1,6]-naphthyridin-9-yl)amino)nicotinonitrile], for which the “HTRF avg pIC50 (1 nM)” value under setting [1] amounted to 5.84.

On to `C[C@@H]1C[C@H](O)CN(c2ncc(Cl)c(Nc3ccc4c(c3)c3c(c(=O)n4C)OCC(F)(F)[C@H](C4CC4)N3)n2)C1` (single isomer, unassigned) [Example 13e, (S)-10-((5-chloro-2-((3S,5R)-3-hydroxy-5-methylpiperidin-1-yl)pyrimidin-4-yl)amino)-2-cyclopropyl-3,3-difluoro-7-methyl-1,2,3,4-tetrahydro-[1,4]oxazepino[2,3-c]quinolin-6(7H)-one or (S)-10-((5-chloro-2-((3R,5S)-3-hydroxy-5-methylpiperidin-1-yl)pyrimidin-4-yl)amino)-2-cyclopropyl-3,3-difluoro-7-methyl-1,2,3,4-tetrahydro-[1,4]oxazepino[2,3-c]quinolin-6(7H)-one], for which the “HTRF avg pIC50 (1 nM)” value under setting [1] is 8.60.

Turning to `C[C@H]1COCc2c(c3cc(Nc4ccnc(Cl)c4C#N)ccc3n(C)c2=O)N1` [Example 9a, (S)-2-chloro-4-((2,7-dimethyl-6-oxo-1,2,3,5,6,7-hexahydro-[1,4]oxazepino[6,5-c]quinolin-10-yl)amino)nicotinonitrile], the “HTRF avg pIC50 (1 nM)” value under setting [1] is 5.66.

On to `C[C@@H]1CN(c2ncc(Cl)c(Nc3ccc4c(c3)c3c(c(=O)n4C)OCC(F)(F)[C@H](C4CC4)N3)n2)C[C@H](C)C1(F)F` [Example 12o, (S)-10-((5-chloro-2-((3S,5R)-4,4-difluoro-3,5-dimethylpiperidin-1-yl)pyrimidin-4-yl)amino)-2-cyclopropyl-3,3-difluoro-7-methyl-1,2,3,4-tetrahydro-[1,4]oxazepino[2,3-c]quinolin-6(7H)-one], for which the “HTRF avg pIC50 (1 nM)” value under setting [1] is reported as 7.74.

Turning to `C[C@H]1C[C@@H](O)CN(c2ncc(Cl)c(Nc3ccc4c(c3)c3c(c(=O)n4C)OCC(F)(F)[C@H](C4CC4)N3)n2)C1` (single isomer, unassigned) [Example 13d, (S)-10-((5-chloro-2-((3R,5S)-3-hydroxy-5-methylpiperidin-1-yl)pyrimidin-4-yl)amino)-2-cyclopropyl-3,3-difluoro-7-methyl-1,2,3,4-tetrahydro-[1,4]oxazepino[2,3-c]quinolin-6(7H)-one or (S)-10-((5-chloro-2-((3S,5R)-3-hydroxy-5-methylpiperidin-1-yl)pyrimidin-4-yl)amino)-2-cyclopropyl-3,3-difluoro-7-methyl-1,2,3,4-tetrahydro-[1,4]oxazepino[2,3-c]quinolin-6(7H)-one], under setting [1], the “HTRF avg pIC50 (1 nM)” value is recorded as 8.70.

`C[C@H]1CN(c2ncc(Cl)c(Nc3ccc4c(c3)c3c(c(=O)n4C)OCC(F)(F)[C@H](C4CC4)N3)n2)CCO1` [Example 12t, (S)-10-((5-chloro-2-((S)-2-methylmorpholino)pyrimidin-4-yl)amino)-2-cyclopropyl-3,3-difluoro-7-methyl-1,2,3,4-tetrahydro-[1,4]oxazepino[2,3-c]quinolin-6(7H)-one]: the “HTRF avg pIC50 (1 nM)” value under setting [1] worked out at 8.46.

For the compound `Cn1c(=O)c2c(c3cc(Nc4ccnc(Cl)c4C#N)ccc31)NC(CC1CC1)CO2` (stereo not drawn) [2-chloro-4-((2-(cyclopropylmethyl)-6-methyl-5-oxo-2,3,5,6-tetrahydro-1H-[1,4]oxazino[2,3-c]quinolin-9-yl)amino)nicotinonitrile], the IC50 under setting [2] was more than 2500 nM.

Turning to `Cn1c(=O)c2c(c3cc(Nc4ccnc(Cl)c4C#N)ccc31)NC(C1CCC1)CCO2` (stereo not drawn) [2-chloro-4-((2-cyclobutyl-7-methyl-6-oxo-1,2,3,4,6,7-hexahydro-[1,4]oxazepino[2,3-c]quinolin-10-yl)amino)nicotinonitrile], the IC50 under setting [2] is more than 2500 nM.

For the compound `Cn1c(=O)c2c(c3cc(Nc4nc(N5CCC(F)(F)[C@@H](O)C5)ncc4Cl)ccc31)N[C@@H](C1CC1)CCO2` (single isomer, unassigned) [Example 12z, (R)-10-((5-chloro-2-((S)-4,4-difluoro-3-hydroxypiperidin-1-yl)pyrimidin-4-yl)amino)-2-cyclopropyl-7-methyl-1,2,3,4-tetrahydro-[1,4]oxazepino[2,3-c]quinolin-6(7H)-one or (R)-10-((5-chloro-2((R)-4,4-difluoro-3-hydroxypiperidin-1-yl)pyrimidin-4-yl)amino)-2-cyclopropyl-7-methyl-1,2,3,4-tetrahydro-[1,4]oxazepino[2,3-c]quinolin-6(7H)-one], the “HTRF avg pIC50 (1 nM)” value under setting [1] is on record as 7.52.

With “(R)-10-((5-chloro-2-((S)-4,4-difluoro-3- (hydroxymethyl)piperidin-1-yl)pyrimidin-4-yl)amino)-2- cyclopropyl-7-methyl-1,2,3,4-tetrahydro- [1,4]oxazepino[2,3-c]quinolin-6(7H)-one or (R)-10-((5-chloro- 2-((R)-4,4-difluoro-3-(hydroxymethyl)piperidin-1-yl)pyrimidin- 4-yl)amino)-2-cyclopropyl-7-methyl-1,2,3,4-tetrahydro- [1,4]oxazepino[2,3-c]quinolin-6(7H)-one [Example 15c]”, the “HTRF avg pIC50 (1 nM)” value under setting [1] is 7.55.

Take `Cn1c(=O)c2c(c3cc(Nc4ccnc(Cl)c4C#N)ccc31)NC(C(F)F)CCO2` (stereo not drawn) [Example 1p, 2-chloro-4-((2-(difluoromethyl)-7-methyl-6-oxo-1,2,3,4,6,7-hexahydro-[1,4]oxazepino[2,3-c]quinolin-10-yl)amino)nicotinonitrile]: the “HTRF avg pIC50 (1 nM)” value under setting [1] is on record as 5.67.

Take `C[C@H]1COC(=O)c2c(c3cc(Nc4nc(N5CCC(C(=O)N(C)C)CC5)ncc4Cl)ccc3n(C)c2=O)N1` [Example 8d, (S)-1-(5-chloro-4-((2,7-dimethyl-5,6-dioxo-1,2,3,5,6,7-hexahydro-[1,4]oxazepino[6,5-c]quinolin-10-yl)amino)pyrimidin-2-yl)-N,N-dimethylpiperidine-4-carboxamide]: the “HTRF avg pIC50 (1 nM)” value under setting [1] worked out at 6.78.
